The experiment concerns BDF1 mice, P388 leukemia ip, median survival T/C. Put plainly: NCI In Vivo Anticancer Drug Screen. Data for tumor model P388 Leukemia (intraperitoneal) in B6D2F1 (BDF1) mice. To be noted: endpoint: median survival time, higher = longer survival. An outline of the steps: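 Transplantable tumour in mice; compound vs vehicle dosing; survival scored; ratio of treated to control reported.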

[1] abbreviates: dose: 60.0 mg/kg/injection, schedule: Q01DX009 (ip), vehicle: saline.
The mark [2] stands for this setting: dose: 100.0 mg/kg/injection, schedule: Q04DX003 (ip), vehicle: saline sonified.
Where [3] appears, read: dose: 200.0 mg/kg/injection, schedule: Q04DX003 (ip), vehicle: saline sonified.
The mark [4] stands for this setting: dose: 100.0 mg/kg/injection, schedule: Q01DX009 (ip), vehicle: saline with Tween-80.
[5] abbreviates: dose: 100.0 mg/kg/injection, schedule: Q04DX003 (ip), vehicle: saline with Tween-80.
Where [6] appears, read: dose: 200.0 mg/kg/injection, schedule: Q04DX003 (ip), vehicle: saline with Tween-80.
Setting [7] is: dose: 400.0 mg/kg/injection, schedule: Q04DX003 (ip), vehicle: saline with Tween-80.

The structures appear in SMILES notation. Where “and” joins values, the source holds several entries; their conditions need not be identical. Equal entries are not always repeated. Toxic doses and inconclusive results are not listed.

Take `CN=C1N[N+]2=CCCCC2S1` (stereo not given): the T/C was 163 % of control under setting [1] and 95 % of control (dose: 120.0 mg/kg/injection, schedule: Q01DX009 (ip), vehicle: saline).

For the compound `CCCCOc1cc(C(=O)NCCN(CC)CC)c2ccccc2n1`, the T/C runs as follows: (dose: 6.25 mg/kg/injection, schedule: Q04DX003 (ip), vehicle: saline with Tween-80) 100 % of control; (dose: 12.5 mg/kg/injection, schedule: Q04DX003 (ip), vehicle: saline with Tween-80) 109 % of control; (dose: 25.0 mg/kg/injection, schedule: Q04DX003 (ip), vehicle: saline with Tween-80) 109 % of control.

With `O=C1c2cc(O)c(O)cc2O[C@H](c2ccc(O)c(O)c2)[C@H]1O`, the T/C runs as follows: (dose: 7.5 mg/kg/injection, schedule: Q01DX010 (ip), vehicle: saline) 100 % of control; (dose: 15.0 mg/kg/injection, schedule: Q01DX009 (ip), vehicle: saline) 113 % of control and 118 % of control; (dose: 15.0 mg/kg/injection, schedule: Q01DX010 (ip), vehicle: saline) 109 % of control; (dose: 30.0 mg/kg/injection, schedule: Q01DX009 (ip), vehicle: saline) 100 % of control; (dose: 30.0 mg/kg/injection, schedule: Q01DX010 (ip), vehicle: saline) 109 % of control; under setting [1], 104 % of control and 122 % of control. In addition, the T/C runs as follows: (dose: 125.0 mg/kg/injection, schedule: Q01DX009 (ip), vehicle: saline) 104 % of control; (dose: 350.0 mg/kg/injection, schedule: Q01DX009 (ip), vehicle: saline) 117 % of control.

In the case of `Nc1ccc(S(=O)(=O)c2cc(O)c3ccccc3c2O)cc1`, the T/C reads like this: (dose: 6.25 mg/kg/injection, schedule: Q01DX009 (ip), vehicle: Klucel (hydroxypropylcellulose) (HPC)) 118 % of control; (dose: 12.5 mg/kg/injection, schedule: Q01DX009 (ip), vehicle: Klucel (hydroxypropylcellulose) (HPC)) 104 % of control; (dose: 25.0 mg/kg/injection, schedule: Q01DX009 (ip), vehicle: Klucel (hydroxypropylcellulose) (HPC)) 122 % of control.

For `Cc1nc(N)cc(=O)[nH]1`, the T/C reads like this: (dose: 100.0 mg/kg/injection, schedule: Q01DX009 (ip), vehicle: water) 105 % of control; (dose: 200.0 mg/kg/injection, schedule: Q01DX009 (ip), vehicle: water) 110 % of control; (dose: 400.0 mg/kg/injection, schedule: Q01DX009 (ip), vehicle: water) 95 % of control.

`O=c1ccc2c([nH]1)CCCCC2`: the T/C is, setting by setting: (dose: 50.0 mg/kg/injection, schedule: Q04DX003 (ip), vehicle: saline sonified) 104 % of control; under setting [2], 100 % of control; under setting [3], 95 % of control.

For the compound `O=C(Nc1ccc(C2=NCCN2)cc1)c1cccc(C(=O)Nc2ccc(C3=NCCN3)cc2)c1`, the T/C was 160 % of control (dose: 8.0 mg/kg/injection, schedule: Q01DX010 (ip), vehicle: saline); 163 % of control and 180 % of control (dose: 16.0 mg/kg/injection, schedule: Q01DX010 (ip), vehicle: saline); 195 % of control and 200 % of control (dose: 32.0 mg/kg/injection, schedule: Q01DX010 (ip), vehicle: saline); 235 % of control and 200 % of control (dose: 64.0 mg/kg/injection, schedule: Q01DX010 (ip), vehicle: saline).

For `CCN1CC1` (tested in a mixture with another compound), the T/C by setting is: (dose: 0.14 mg/kg/injection, schedule: Q01DX009 (ip), vehicle: saline) 95 % of control; (dose: 0.29 mg/kg/injection, schedule: Q01DX009 (ip), vehicle: saline) 86 % of control; (dose: 0.58 mg/kg/injection, schedule: Q01DX009 (ip), vehicle: saline) 90 % of control; (dose: 1.17 mg/kg/injection, schedule: Q01DX009 (ip), vehicle: saline) 120 % of control; (dose: 2.34 mg/kg/injection, schedule: Q01DX009 (ip), vehicle: saline) 120 % of control.

Consider `CC(C)n1cnc2c(=S)nc[nH]c21`, for which the T/C was 91 % of control under setting [4], 100 % of control under setting [5], 104 % of control under setting [6] and 113 % of control under setting [7].

As for `O=C(O)c1cc(C(=O)O)cc([N+](=O)[O-])c1`, the T/C was 100 % of control (dose: 25.0 mg/kg/injection, schedule: Q01DX009 (ip), vehicle: saline with Tween-80); 100 % of control (dose: 50.0 mg/kg/injection, schedule: Q01DX009 (ip), vehicle: saline with Tween-80); 90 % of control under setting [4].

As to `CC(=O)Cc1ccc(C(=O)C(C)Cc2ccc(C(C)=O)cc2)cc1` (stereo not given), the T/C is, setting by setting: under setting [5], 100 % of control; under setting [6], 90 % of control; under setting [7], 90 % of control.

Turning to `Cc1nc(C(N)=O)c(=O)[nH]c1C`, the T/C was 104 % of control (dose: 6.25 mg/kg/injection, schedule: Q04DX003 (ip), vehicle: saline); 109 % of control (dose: 12.5 mg/kg/injection, schedule: Q04DX003 (ip), vehicle: saline); 100 % of control (dose: 25.0 mg/kg/injection, schedule: Q04DX003 (ip), vehicle: saline); 88 % of control (dose: 50.0 mg/kg/injection, schedule: Q04DX003 (ip), vehicle: saline); 104 % of control under setting [2]; 104 % of control under setting [3].

With `Cc1ccc(C)c(CCO)c1`, the T/C reads like this: (dose: 45.0 mg/kg/injection, schedule: Q01DX009 (ip), vehicle: other) 105 % of control; (dose: 50.0 mg/kg/injection, schedule: Q01DX009 (ip), vehicle: Klucel (hydroxypropylcellulose) (HPC)) 108 % of control; (dose: 65.0 mg/kg/injection, schedule: Q01DX009 (ip), vehicle: other) 100 % of control; (dose: 100.0 mg/kg/injection, schedule: Q01DX009 (ip), vehicle: Klucel (hydroxypropylcellulose) (HPC)) 100 % of control; (dose: 100.0 mg/kg/injection, schedule: Q01DX009 (ip), vehicle: other) 100 % of control; under setting [5], 109 % of control. Further, the T/C is, setting by setting: (dose: 150.0 mg/kg/injection, schedule: Q01DX009 (ip), vehicle: other) 105 % of control; (dose: 200.0 mg/kg/injection, schedule: Q01DX009 (ip), vehicle: Klucel (hydroxypropylcellulose) (HPC)) 112 % of control; (dose: 200.0 mg/kg/injection, schedule: Q01DX009 (ip), vehicle: other) 104 % of control and 120 % of control; under setting [6], 109 % of control.

On to `CC(C)(C)c1cc2c3c(c1)C(C)(C)OS3(C)(=O)OC2(C)C`, for which the T/C by setting is: (dose: 12.5 mg/kg/injection, schedule: Q04DX002 (ip), vehicle: saline with Tween-80) 93 % of control; (dose: 25.0 mg/kg/injection, schedule: Q04DX002 (ip), vehicle: saline with Tween-80) 107 % of control; (dose: 50.0 mg/kg/injection, schedule: Q04DX002 (ip), vehicle: saline with Tween-80) 97 % of control and 98 % of control.

Take `CCOC(=O)/C=C(\C)C(C)=O`: the T/C was 104 % of control under setting [4]; 109 % of control under setting [5]; 109 % of control (dose: 200.0 mg/kg/injection, schedule: Q01DX009 (ip), vehicle: saline with Tween-80); 104 % of control under setting [6]; 113 % of control (dose: 400.0 mg/kg/injection, schedule: Q01DX009 (ip), vehicle: saline with Tween-80); 118 % of control under setting [7].

Take `COc1ccc(C2c3cc4c(c(OC)c3CC(CO)C2C(=O)O)OCO4)cc1OC` (stereo not given): the T/C is, setting by setting: (dose: 9.38 mg/kg/injection, schedule: Q01DX010 (ip), vehicle: water) 95 % of control; (dose: 18.75 mg/kg/injection, schedule: Q01DX010 (ip), vehicle: water) 90 % of control; (dose: 37.5 mg/kg/injection, schedule: Q01DX010 (ip), vehicle: water) 90 % of control; (dose: 50.0 mg/kg/injection, schedule: Q01DX001 (ip), vehicle: water) 110 % of control; (dose: 75.0 mg/kg/injection, schedule: Q01DX010 (ip), vehicle: water) 110 % of control; (dose: 100.0 mg/kg/injection, schedule: Q01DX001 (ip), vehicle: water) 100 % of control. The T/C runs as follows: (dose: 150.0 mg/kg/injection, schedule: Q01DX010 (ip), vehicle: water) 115 % of control; (dose: 200.0 mg/kg/injection, schedule: Q01DX001 (ip), vehicle: water) 110 % of control; (dose: 400.0 mg/kg/injection, schedule: Q01DX001 (ip), vehicle: water) 110 % of control.
